Data from PubChem BioAssay AID179 (DTP/NCI, 2004).
pEC50, pIC50: −log10 of the molar value. Active and inactive are the calls of the source.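 The calls were made as follows: active = compounds giving half or more protection of infected cells from virus-caused growth loss, again on retest; inactive = the rest.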 Where a SMILES comes first, the peptide text is derived from it.

Test system: CEM cells HIV-1 protection, formazan growth assay
Assay: NCI AIDS Antiviral Assay
Conditions: for pIC50: measured here: growth of uninfected CEM cells
In short: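 Protection of CEM cells against HIV-1 was scored from cell growth (soluble formazan) across five concentrations, with parallel uninfected cells. Lack of protection may reflect toxicity.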

Row | Structure (SMILES) | pEC50 | pIC50 | outcome
1 | Cc1nn(C(=O)c2ccccc2O)c2c1C(c1ccco1)SC(N)=N2 (configuration not stated) | < 4.70 | 5.91 | –
2 | c1ccc(C2=C(c3ccccc3)Sc3nnc(CCCCCCCCc4nnc5n4NC(c4ccccc4)=C(c4ccccc4)S5)n3N2)cc1 | < 3.70 | 4.05 | –
3 | O=C(c1ccco1)N1CCCN(C(=O)c2ccco2)C1=S | < 3.70 | 4.55 | –
4 | COCc1c(C)oc2c(C)c3oc(=O)cc(C)c3cc12 | < 3.96 | < 3.96 | –
5 | Nc1cccc2c1C(=O)c1cccc(NC(=O)c3ccc4c5c(nsc35)-c3ccccc3C4=O)c1C2=O | < 4.81 | < 4.81 | –
6 | O=S1(=O)C2C=CCC1C(c1ccccc1)CC2 (configuration not stated) | < 3.00 | < 3.00 | –
7 | NNc1cnn(-c2ccccc2)c(=O)c1Cl | < 4.24 | 5.34 | –
8 | O=[N+]([O-])c1cc([As](=O)(O)O)ccc1Cl | < 3.70 | < 3.70 | –
9 | CCc1cn(C2CC(CO)C(CO)S2)c(=O)[nH]c1=O (configuration not stated) | < 3.70 | < 3.70 | –
10 | Cc1cc(Cl)ccc1NC(=O)/C(=N\NC(C)(C)C)C(C#N)c1nc(-c2ccc([N+](=O)[O-])cc2)cs1 (configuration not stated) | 5.58 | 4.99 | –
11 | Cc1cc2nc3c4ccccc4scc-3c2cc1C | < 3.70 | 6.49 | –
12 | COc1ccc(/C=c2/sc3n(c2=O)NC(c2ccc(Cl)cc2)NN=3)cc1 (configuration not stated) | – | – | inactive
13 | Nc1c(C(=O)O)nnc2cc(Cl)ccc12 | < 3.70 | 4.18 | –
14 | CC(=O)Oc1ccccc1C(=O)/C=C/c1ccccc1 | < 3.88 | 4.92 | –
15 | CCOC(=O)NC(=O)c1cn(CCN2CCN(C(=O)CCCCCCCCCCNc3ncnc4c3ncn4C3OC(CO)C(O)C3O)CC2)c(=O)[nH]c1=O (configuration not stated) | – | – | inactive
16 | O=C(NCc1ccncc1)C1COc2cc(-c3cc(=O)c4ccccc4o3)ccc2O1 (configuration not stated) | – | – | inactive
17 | CCSC1=N/C(=C\c2ccco2)C(Cl)=N1 | < 4.00 | < 4.00 | –
18 | CC(=O)NC(C(=O)NC(C)C(=O)N1CCCC1C(=O)O)C(C)C (stereo not drawn) (Ac-Val-Ala-Pro-OH; configuration not given here) | < 3.70 | < 3.70 | –
19 | c1ccc(-c2cc(Nc3ccc4c(c3)OCO4)c3cc(C4CCCCC4)ccc3n2)cc1 | – | – | inactive
20 | N#Cc1c(N)c(C(=O)Nc2ccc(Cl)cc2)n2c1CCC2 | < 3.70 | < 3.70 | –
21 | O=C(NNC(=O)c1ccccc1Cl)c1ccccc1Cl | < 3.70 | < 3.70 | –
22 | COc1ccccc1NC(=O)C1=C(C)NC(C)=C(C(=O)Nc2ccccc2OC)C1c1cccc2c1OCO2 | – | – | inactive

Row | Structure (SMILES) | pEC50 | pIC50 | outcome
23 | CCC(C(=O)c1ccc(OC)c(OC)c1)N(C(=O)C(F)(F)F)C(C)c1ccccc1 (configuration not stated) | < 3.70 | < 3.70 | –
24 | COC(=O)C(C)(C)C(OP1(=S)N(C)CCN1C)=C(C)C | < 3.81 | < 3.81 | –
25 | CC(C)c1cccc(C(C)C)c1N1C(=O)C(=O)C(c2nc3ccccc3o2)C(=O)C1=O | – | – | inactive
26 | O=C1c2cccc3cccc(c23)C(=O)N1C(Cc1ccccc1)c1ccccc1 (configuration not stated) | < 3.70 | < 3.70 | –
27 | N/N=C(/Cc1ccccc1)NNC(N)=S | < 3.37 | 3.58 | –
28 | NCCCCC(NC(=O)C(CS)NC(=O)C(N)Cc1cnc[nH]1)C(=O)NC(Cc1ccccc1)C(=O)NC(Cc1c[nH]c2ccccc12)C(=O)NC(Cc1c[nH]c2ccccc12)C(N)=O (configuration not stated) | < 4.30 | < 4.30 | –
29 | CCCCS(=O)(=O)CCC(N)P(=O)(O)O (configuration not stated) | < 3.70 | < 3.70 | –
30 | O=C(/C=C\c1cccc2ccccc12)c1ccc(Cl)cc1Cl | < 5.78 | < 5.78 | –
31 | Cc1ccc(C)c(C(=O)c2ccccc2C(=O)O)c1 | < 3.70 | < 3.70 | –
32 | CC1OC(CC(=O)O)Cc2c1c(O)c1c(O)cc(-c3cc(=O)c4c(=O)c5c(c(=O)c=4c3=O)CC(CC(=O)O)OC5C)c(O)c1c2O (configuration not stated) | – | – | inactive
33 | O=C1CCC2c3ccccc3NCN12 (configuration not stated) | – | – | inactive
34 | CN(C)c1ccc(/C=c2\[nH]c(=O)/c(=C\c3ccc(N(C)C)cc3)[nH]c2=O)cc1 | < 4.30 | < 4.30 | –
35 | CC(=O)O[C@H]1CCc2c(cc(N)c3c2C(=O)C[C@]2(C)C([C@H](C)CCCC(C)C)CCC32C)C1(C)C (some centres not stated) | < 3.70 | < 3.70 | –
36 | Cn1c(=O)c2c(nc(N/N=C/c3cccc(Br)c3)n2C)n(C)c1=O | < 3.70 | < 3.70 | –
37 | N#CC1=C(c2ccccc2)C(=C2Nc3ccccc3N2)C2S/C(=C\c3ccccc3)C(=O)N2C1=N (configuration not stated) | < 5.66 | < 5.66 | –
38 | CCOC(=O)C(C(=O)OCC)C(c1ccc(OC)cc1)N1CCN(C(c2ccc(OC)cc2)C(C(=O)OCC)C(=O)OCC)CC1 (configuration not stated) | < 4.00 | < 4.00 | –
39 | CC(C)OC1CC(C)(C)c2c(-c3ccccc3)nn(-c3ccccc3)c2O1 (configuration not stated) | < 4.21 | 4.42 | –
40 | C=C1[C@@H]2CCC(C)(C)[C@H]1CCC(=O)[C@@H]2C(=O)OC | < 3.57 | 3.60 | –
41 | Cc1ccc(-n2c(N)c(C#N)c3c(c2=S)CCC3)cc1 | < 3.89 | < 3.89 | –
42 | NC(=O)Cn1c(=O)oc2cc(C(=O)CN3CCOCC3)ccc21 | < 3.70 | < 3.70 | –
43 | CC(=O)c1c(N=[N+]=[N-])c2cccc3c2n(c1=O)CCC3 | < 3.70 | 4.51 | –
44 | CC(=O)Nc1ccc(SSc2ccc(NC(C)=O)c3cccnc23)c2ncccc12 | < 3.70 | 5.63 | –

Row | Structure (SMILES) | pEC50 | pIC50 | outcome
45 | C/C(=N/NC(=S)N1CCCC1)c1cccc(/C(C)=N\NC(=S)N2CCCC2)n1 | < 5.70 | 6.91 | –
46 | C=CCC[P+](c1ccccc1)(c1ccccc1)c1ccccc1 | < 3.70 | 5.65 | –
47 | N#Cc1ccc(/C=C2\Cc3ccccc3C2=O)cc1 | < 3.70 | < 3.70 | –
48 | O=C1CC(c2[nH]nc3ccccc23)C(=O)N1c1ccccc1 (configuration not stated) | – | – | inactive
49 | CCOC(=O)C1N(S(=O)(=O)c2ccc(C)cc2)CCC12c1ccccc1N(C(C)=O)C2c1ccc(OC)c(OC)c1 (configuration not stated) | – | – | inactive
50 | Cc1cc(C)nc(NC(=S)Nc2ccccc2Cl)c1 | < 3.70 | < 3.70 | –
51 | CC(C)CC(NC(=O)C(Cc1cnc[nH]1)NC(=O)C(CC(N)=O)NC(=O)C(NC(=O)C(CO)NC(=O)C(Cc1ccc(O)cc1)NC(=O)C(CO)NC(=O)C(C)NC(=O)C(CCCCN)NC(=O)C(N)CC(=O)O)C(C)O)C(=O)O (configuration not stated) (H-DKASYSTNHL-OH; configuration not given here) | < 4.26 | < 4.26 | –
52 | C=CCSc1nn(CC=C)cc2ncnc1-2 | < 3.70 | < 3.70 | –
53 | C=C(C)[C@@]1(O[Si](C)(C)C)CCCC[C@@H]1CC(Sc1ccccc1)Sc1ccccc1 | < 3.70 | 4.94 | –
54 | CC(C)(C)CS(=O)(=O)O.[Ag] | < 3.70 | 4.98 | –
55 | COC12CCC(C(C(=O)c3ccccc3)=C1C(=O)c1ccccc1)C(O)C2 (configuration not stated) | < 3.30 | < 3.30 | –
56 | CCOC(=O)C1=C(O)CC(=O)N=C1N1CCCC1 | < 3.70 | < 3.70 | –
57 | C[C@H](c1ccccc1)N1C(=O)[C@@H](OCc2ccccc2)[C@H]1[C@H](COC(=O)COCc1ccccc1)OCc1ccccc1 | < 3.70 | < 3.70 | –
58 | N#C/C(=C\c1cc(O)c(O)c(O)c1)C(N)=O | < 3.70 | 4.04 | –
59 | CCC/C(=N\NC(=O)c1cc2ccccc2cc1O)C(CC)C(=O)CCC(=O)N(Cc1ccccc1)Cc1ccccc1 (configuration not stated) | < 4.35 | < 4.35 | –
60 | O=c1cc(-c2cccs2)ss1 | 4.11 | 3.96 | –
61 | CCc1cc(-c2nsc(=O)o2)c(S(=O)(=O)CC)s1 | < 3.70 | 4.03 | –
62 | O=C(/C=C/c1cccc2ccccc12)c1ccccc1[N+](=O)[O-] | < 3.70 | 5.49 | –
63 | O=c1nc(-c2ccccc2)c2c3c(cccn13)CCC2 | – | – | inactive
64 | CN(C)CC1CCC/C(=C\c2ccc(Cl)c(Cl)c2)C1=O (configuration not stated) | – | – | inactive
65 | CC/C=C/c1cc2cc[nH]c2c2c1C(C)C[C@@H]2C (some centres not stated) | – | – | inactive
66 | CC1(C2CCC3(C)C(C2)C3Sc2ccccc2)OCCO1 (configuration not stated) | – | – | inactive

Row | Structure (SMILES) | pEC50 | pIC50 | outcome
67 | N#C/C(=C\c1ccccc1)C(=O)c1ccccc1 | < 4.02 | < 4.02 | –
68 | C[C@@H]1C[C@H](C)S(=O)[C@H](C)S1 (some centres not stated) | < 2.85 | < 2.85 | –
69 | COC(=O)C(NC(=O)C(C)NC(=O)OC(C)(C)C)C(C)O (configuration not stated) | – | – | inactive
70 | CCCCc1ccc(C(N)=O)nc1 | < 3.70 | < 3.70 | –
71 | CC(C)(c1ccccc1)c1ccc(Oc2ccc(C#N)c(C#N)c2)cc1 | < 4.53 | 4.54 | –
72 | COc1ccc2c(=O)c(O)c(-c3ccccc3)oc2c1 | < 4.18 | 4.91 | –
73 | Cc1cc(C)c(C#N)c(SC(=S)NC(=O)c2ccccc2)n1 | 3.80 | < 3.70 | –
74 | N#CC1(c2ccccc2)CCN(Cc2ccccc2)CC1 | < 3.94 | 4.22 | –
75 | CCOC(=O)c1c2c(n3ccc(C)cc13)C(=O)C(c1ccc([N+](=O)[O-])cc1)S2 (configuration not stated) | – | – | inactive
76 | COC(=O)[C@H](Cc1ccccc1)NC(=O)/C(=C/C(C)C)NC(=O)[C@H](CCSC)NC=O | < 3.26 | < 4.00 | –
77 | O=[N+]([O-])c1cc2ccc(O)cc2c2ccccc12 | 4.29 | 4.21 | –
78 | CCOC(=O)C12CC1(C(=O)OCC)C1CCC2C1 (configuration not stated) | < 3.70 | < 3.70 | –
79 | Cn1c(N)c(Br)c(=O)n(C)c1=O | < 3.70 | < 3.70 | –
80 | CC(=O)C(N=Nc1nccs1)C(C)=O | < 3.70 | 4.26 | –
81 | CCOCC(CN(CC)CC)N(CC)CC(=O)Nc1c(C)cccc1C (configuration not stated) | < 3.70 | 5.38 | –
82 | CCOC(=O)/C(=C\c1c[nH]c2ccccc12)P(=O)(OCC)OCC | < 3.70 | 4.42 | –
83 | C=C(C)c1ccc2c(c1)C(=O)C[C@@H]1[C@](C)(C#N)CCC[C@]21C | < 3.70 | 4.35 | –
84 | CSc1ncc(Br)c(Nc2c[nH]c(=O)[nH]c2=O)n1 | < 3.70 | < 3.70 | –
85 | CCOC(=O)/C(=C\c1ccnc2ccccc12)P(=O)(OCC)OCC | < 3.70 | 5.48 | –
86 | CC(C)(C)c1cc(C(O)(C(F)(F)F)C(F)(F)F)c2c(c1)C(C(F)(F)F)(C(F)(F)F)OC(c1ccccc1)(C(C)(C)C)N2 (configuration not stated) | – | – | inactive
87 | CCN1CCC(CNC(=O)c2ccc(N)cc2)N1CC (configuration not stated) | < 3.70 | < 3.70 | –
